Measurements as given in patent US12559492B2, “BRAF degraders” (C4 Therapeutics, Inc., priority 2020, dated 2026).

Molecular target: BRAF^V600E protein (Homo sapiens, UniProt P15056, V600E)
Test: HiBiT cellular BRAF V600E degradation assay
Format: cell-based
Details: 24 h incubation; for DC50: A375.10 cells (HiBiT tag knocked in at N-terminal of BRAF V600E), concentration at which 50% of total cellular BRAF V600E is degraded; for Emax: A375.10 cells, Emax = amount of residual protein remaining in the cell after compound treatment, read-out: HiBit 24 h Emax

BRAF^V600E protein, sequence (P15056 whole entry V600E): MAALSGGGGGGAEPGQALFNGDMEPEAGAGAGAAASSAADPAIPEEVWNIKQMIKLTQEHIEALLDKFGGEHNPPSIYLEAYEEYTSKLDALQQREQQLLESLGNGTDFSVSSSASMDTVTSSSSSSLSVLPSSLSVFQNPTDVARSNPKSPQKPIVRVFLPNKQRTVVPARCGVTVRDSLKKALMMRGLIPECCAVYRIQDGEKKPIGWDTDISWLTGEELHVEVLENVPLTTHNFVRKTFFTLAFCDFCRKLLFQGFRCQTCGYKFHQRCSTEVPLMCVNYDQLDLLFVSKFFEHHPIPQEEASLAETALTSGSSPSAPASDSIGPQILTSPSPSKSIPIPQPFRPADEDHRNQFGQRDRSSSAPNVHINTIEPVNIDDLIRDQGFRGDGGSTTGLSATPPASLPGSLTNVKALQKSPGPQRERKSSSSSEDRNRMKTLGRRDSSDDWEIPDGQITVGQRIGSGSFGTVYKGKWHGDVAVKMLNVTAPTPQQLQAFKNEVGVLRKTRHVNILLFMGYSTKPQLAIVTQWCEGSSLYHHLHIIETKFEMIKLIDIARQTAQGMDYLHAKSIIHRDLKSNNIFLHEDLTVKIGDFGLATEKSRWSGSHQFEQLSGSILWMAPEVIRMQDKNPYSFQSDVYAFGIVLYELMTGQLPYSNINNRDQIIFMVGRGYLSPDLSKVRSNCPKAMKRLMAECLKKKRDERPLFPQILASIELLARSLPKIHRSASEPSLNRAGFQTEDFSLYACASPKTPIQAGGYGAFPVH

Row | DC50 [nM] | Emax [%] | Structure (SMILES)
1 | 19 | 18 | CCN(C)S(=O)(=O)Nc1ccc(F)c(C(=O)c2c[nH]c3ncc(-c4cnc(N5CCN(C(=O)CN6CCC(c7ccc(N(C)C8CCC(=O)NC8=O)cc7)CC6)CC5)nc4)cc23)c1F (centres unmarked) [Example A70, 5-[2-[4-[2-[4-[4-[(2,6-Dioxopiperidin-3-yl)-methylamino]phenyl]piperidin-1-yl]acetyl]piperazin-1-yl]pyrimidin-5-yl]-3-[3-[[ethyl(methyl)sulfamoyl]amino]-2,6-difluorobenzoyl]-1H-pyrrolo[2,3-b]pyridine]
2 | 4.47 | 16.1 | O=C1CCC(Nc2ccc(C3CCN(CC(=O)N4CCN(c5ccc(-c6cnc7[nH]cc(C(=O)c8c(F)ccc(NS(=O)(=O)N9CCCC9)c8F)c7c6)cn5)CC4)CC3)cc2)C(=O)N1 (centres unmarked) [Example A72, N-[3-[5-[6-[4-[2-[4-[4-[(2,6-Dioxopiperidin-3-yl)amino]phenyl]piperidin-1-yl]acetyl]piperazin-1-yl]pyridin-3-yl]-1H-pyrrolo[2,3-b]pyridine-3-carbonyl]-2,4-difluorophenyl]pyrrolidine-1-sulfonamide]
3 | 6 | 19 | O=C1CCC(Nc2ccc(N3CCN(CC(=O)N4CCN(c5ccc(-c6cnc7[nH]cc(C(=O)c8c(F)ccc(NS(=O)(=O)N9CCCC9)c8F)c7c6)cn5)CC4)CC3)cc2)C(=O)N1 (centres unmarked) [Example A73, N-[3-[5-[6-[4-[2-[4-[4-[(2,6-Dioxopiperidin-3-yl)amino]phenyl]piperazin-1-yl]acetyl]piperazin-1-yl]pyridin-3-yl]-1H-pyrrolo[2,3-b]pyridine-3-carbonyl]-2,4-difluorophenyl]pyrrolidine-1-sulfonamide]
4 | 7 | 19 | O=C1CCC(Nc2ccc(N3CCN(CC(=O)N4CCN(c5ccc(-c6cnc7[nH]cc(C(=O)c8c(F)ccc(NS(=O)(=O)N9CC[C@@H](F)C9)c8F)c7c6)cc5)CC4)CC3)cc2)C(=O)N1 (stereo partly drawn) [Example A74, (3R)—N-[3-[5-[4-[4-[2-[4-[4-[(2,6-Dioxopiperidin-3-yl)amino]phenyl]piperazin-1-yl]acetyl]piperazin-1-yl]phenyl]-1H-pyrrolo[2,3-b]pyridine-3-carbonyl]-2,4-difluorophenyl]-3-fluoropyrrolidine-1-sulfonamide]
5 | 4.46 | 16.2 | O=C1CCC(Nc2ccc(C3CCN(CC(=O)N4CCN(c5ccc(-c6cnc7[nH]cc(C(=O)c8c(F)ccc(NS(=O)(=O)N9CC[C@@H](F)C9)c8F)c7c6)cc5)CC4)CC3)cc2)C(=O)N1 (stereo partly drawn) [Example A75, (3R)—N-[3-[5-[4-[4-[2-[4-[4-[(2,6-Dioxopiperidin-3-yl)amino]phenyl]piperidin-1-yl]acetyl]piperazin-1-yl]phenyl]-1H-pyrrolo[2,3-b]pyridine-3-carbonyl]-2,4-difluorophenyl]-3-fluoropyrrolidine-1-sulfonamide]
6 | 14.9 | 16.9 | CCN(C)S(=O)(=O)Nc1ccc(F)c(C(=O)c2c[nH]c3ncc(-c4ccc(N5CC6(CN(C(=O)CN7CCC(c8ccc(NC9CCC(=O)NC9=O)cc8)CC7)C6)C5)nc4)cc23)c1F (centres unmarked) [Example A76, 5-[6-[2-[2-[4-[4-[(2,6-dioxopiperidin-3-yl)amino]phenyl]piperidin-1-yl]acetyl]-2,6-diazaspiro[3.3]heptan-6-yl]pyridin-3-yl]-3-[3-[[ethyl(methyl)sulfamoyl]amino]-2,6-difluorobenzoyl]-1H-pyrrolo[2,3-b]pyridine]
7 | 47 | 31 | CCN(C)S(=O)(=O)Nc1ccc(F)c(C(=O)c2c[nH]c3ncc(-c4ccc(N5CC6(CN(C(=O)CN7CCN(c8ccc(NC9CCC(=O)NC9=O)cc8)CC7)C6)C5)nc4)cc23)c1F (centres unmarked) [Example A77, 5-[6-[2-[2-[4-[4-[(2,6-Dioxopiperidin-3-yl)amino]phenyl]piperazin-1-yl]acetyl]-2,6-diazaspiro[3.3]heptan-6-yl]pyridin-3-yl]-3-[3-[[ethyl(methyl)sulfamoyl]amino]-2,6-difluorobenzoyl]-1H-pyrrolo[2,3-b]pyridine]
